According to patent publication US9388195B2, “Heterocyclic compound” (Takeda Pharmaceutical Company Limited, priority 2010, dated 2016):
Structures can show the parent of a compound that is named as a salt. Where two headings read alike, the source gives them in different places. Each block holds one compound with its values, some of them ahead of it.

Experiments:
Cdc7/Dbf4 complex = target: T1, Cdc7/Dbf4 complex (Homo sapiens, UniProt O00311); assay: Measurement of Cdc7 kinase inhibitory activity (Transcreener ADP HTRF assay); type: biochemical
T1 construct: Full-length Cdc7 co-expressed with full-length Dbf4; purchased Carna Biosciences (Kobe)
Description: Full-length Cdc7 co-expressed with full-length Dbf4 was purchased from Carna Biosciences (Kobe). The enzyme activity of Cdc7/Dbf4 complex was detected by homogeneous time-resolved fluorescence method Transcreener ADP assay (Cisbio Inc., MA, U.S.A.). […] Free ADP produced by ATP hydrolysis was detected by Eu^3+-Cryptate-labeled anti-ADP monoclonal antibody competitively with d2-labeled ADP, and the production amount thereof was measured. The obtained time-resolved fluorescence resonance energy transfer signal was measured by EnVision (Perkin Elmer Inc., MA, U.S.A.). The inhibitory rate (%) of the test compound to Cdc7 was calculated by the following formula. Inhibitory rate(%)=(1−(count of test compound-blank)[…](control-blank))×100
The count of the Cdc7/Dbf4 reaction mixture under compound-free conditions was taken as the control, and that under compound-free and Cdc7/Dbf4-free conditions was taken as the blank.

[1] = test system: phosphorylated MCM2 (Ser40/Ser41); assay: Measurement of MCM2 phosphorylation inhibitory activity in human colorectal cancer cell Colo205 (Western blot); type: cell-based; settings: read-out: inhibitory rate (%) at 1 μM
Description: The MCM2 phosphorylation suppressive action of the compound of the present invention in human colorectal cancer cell Colo205 can be measured as follows. A cell suspension (500 μl) of human colorectal cancer cell Colo205 (purchased from ATCC) (50,000 cells/well) was plated in a 24 well plate, and cultured in a 5% carbon dioxide gas incubator at 37° C. for 1 day. […] The plate was washed with PBS, the cells were lysed in Laemmli Sample Buffer (BioRad), and cell lysate was treated at 95° C. for 5 min.

[2] = test system: human colorectal cancer cell Colo205; assay: Measurement of growth inhibitory activity on human colorectal cancer cell Colo205 (CellTiter-Glo); type: cell-based; settings: COLO 205, 72 h, read-out: inhibitory rate (%) at 1 μM
Description: The growth inhibition of colorectal cancer cell Colo205 with the compound of the present invention can be measured as follows.
A cell suspension (100 μl) of human colorectal cancer cell Colo205 (purchased from ATCC) (3,000 cells/well) was plated in a 96 well plate, and cultured in a 5% carbon dioxide gas incubator at 37° C. for 1 day. Each 2 μM test compound solution was added by 100 μl and the cells were cultured for 3 days. CellTiter-Glo™ Luminescent Cell Viability Assay reagent (50 μl, Promega) was added to the 96 well plate, the luminescence level was measured by a luminometer and the residual ATP amount was taken as the cell amount. The luminescence level of a well free of cell plating was taken as a blank. The cell proliferation inhibitory rate (%) of the test compound was calculated by the following formula. Inhibitory rate(%)=(1−(luminescence level of test compound—blank)[…](luminescence level of control group—blank))×100

[3] = test compound 1 μM, Cdc7/Dbf4, 1.0 μm ATP, 10 μg/ml MCM2, read-out: inhibitory rate (%) at 1 μM
[4] = COLO 205, phosphorylated MCM2 protein, Colo205 cells, 1 μM, 8 hr
[5] = cell proliferation, Colo205, 1 μM, cultured for 3 days
[6] = read-out: inhibitory rate (%) at 1 μM, test compound 1 μM, Cdc7/Dbf4, 1.0 μm ATP, 10 μg/ml MCM2
[7] = read-out: inhibitory rate (%) at 1 μM

T1 sequence (O00311 whole entry): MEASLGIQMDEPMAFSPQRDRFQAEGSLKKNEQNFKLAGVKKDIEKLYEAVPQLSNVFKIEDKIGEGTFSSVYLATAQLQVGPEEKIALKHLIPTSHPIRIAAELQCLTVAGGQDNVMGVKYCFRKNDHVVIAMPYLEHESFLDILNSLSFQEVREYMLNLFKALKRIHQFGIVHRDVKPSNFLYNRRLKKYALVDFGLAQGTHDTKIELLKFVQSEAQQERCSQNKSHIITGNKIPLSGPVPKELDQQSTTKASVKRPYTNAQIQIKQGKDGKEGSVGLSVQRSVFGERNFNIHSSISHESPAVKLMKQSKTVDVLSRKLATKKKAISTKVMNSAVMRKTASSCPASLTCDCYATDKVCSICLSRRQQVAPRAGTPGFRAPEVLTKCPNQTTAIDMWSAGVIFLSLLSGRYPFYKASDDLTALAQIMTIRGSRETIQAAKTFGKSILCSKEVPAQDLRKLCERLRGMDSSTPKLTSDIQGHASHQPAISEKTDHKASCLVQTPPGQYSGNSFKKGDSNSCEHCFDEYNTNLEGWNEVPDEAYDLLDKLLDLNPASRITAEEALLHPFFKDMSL
T1 sequence (Q9UBU7 whole entry partner): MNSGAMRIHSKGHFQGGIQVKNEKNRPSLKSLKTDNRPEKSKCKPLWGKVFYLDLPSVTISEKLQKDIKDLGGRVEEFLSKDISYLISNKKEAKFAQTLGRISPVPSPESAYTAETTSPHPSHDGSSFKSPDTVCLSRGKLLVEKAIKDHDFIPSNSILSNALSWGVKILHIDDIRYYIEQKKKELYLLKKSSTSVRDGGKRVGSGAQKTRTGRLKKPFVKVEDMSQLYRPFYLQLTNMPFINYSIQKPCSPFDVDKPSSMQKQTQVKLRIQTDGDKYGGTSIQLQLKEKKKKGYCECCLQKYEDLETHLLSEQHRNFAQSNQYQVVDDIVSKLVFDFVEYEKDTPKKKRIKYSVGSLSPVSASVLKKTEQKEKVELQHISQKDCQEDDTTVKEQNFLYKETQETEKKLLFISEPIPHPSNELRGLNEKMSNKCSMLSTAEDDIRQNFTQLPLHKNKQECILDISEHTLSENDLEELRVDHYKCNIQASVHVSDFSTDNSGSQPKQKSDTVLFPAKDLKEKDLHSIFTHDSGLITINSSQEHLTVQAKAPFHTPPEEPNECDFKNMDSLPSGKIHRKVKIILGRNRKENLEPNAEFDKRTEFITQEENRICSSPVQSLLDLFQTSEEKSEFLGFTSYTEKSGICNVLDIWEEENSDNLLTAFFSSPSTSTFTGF

Compound: Cc1[nH]ncc1-c1cc2nc([C@H]3NC4CC3[C@H](F)C4)[nH]c(=O)c2s1 (single isomer, unassigned) [Example 160, 2-[(1R,3S,4R,5R) or (1S,3S,4S,5R)-5-fluoro-2-azabicyclo[2.2.1]hept-3-yl]-6-(5-methyl-1H-pyrazol-4-yl)thieno[3,2-d]pyrimidin-4 (3H)-one dihydrochloride]
inhibition at 1 µM (Cdc7/Dbf4 complex; [3]): 104%
inhibition at 1 µM [1, 4]: 95%
inhibition at 1 µM [2, 5]: 73.3%

Compound: Cc1[nH]ncc1-c1cc2nc([C@H]3N[C@@H]4CC[C@H]3C4)[nH]c(=O)c2s1 [Example 91, 2-[(1R,3S,4S)-2-azabicyclo[2.2.1]heptan-3-yl]-6-(5-methyl-1H-pyrazol-4-yl)thieno[3,2-d]pyrimidin-4 (3H)-one]
inhibition at 1 µM (Cdc7/Dbf4 complex; [3]): 106%
inhibition at 1 µM [1, 4]: 98.4%
inhibition at 1 µM [2, 5]: 71.7%

Compound: Cc1[nH]ncc1-c1cc2nc(C34CCC(CC3)N4)[nH]c(=O)c2s1 [Example 116, 2-(7-azabicyclo[2.2.1]hept-1-yl)-6-(5-methyl-1H-pyrazol-4-yl)thieno[3,2-d]pyrimidin-4 (3H)-one monohydrochloride]
inhibition at 1 µM (Cdc7/Dbf4 complex; [6]): 102%
inhibition at 1 µM ([1]; COLO 205, 8 h): 98.7%
inhibition at 1 µM [2]: 60.5%

Compound: Cc1[nH]ncc1-c1cc2nc(C3C[C@@H]4CCC[C@@H]4N3)[nH]c(=O)c2s1 (stereo partly drawn) [Example 123, 6-(5-methyl-1H-pyrazol-4-yl)-2-[(3aS,6aS)-octahydrocyclopenta[b]pyrrol-2-yl]thieno[3,2-d]pyrimidin-4 (3H)-one]
inhibition at 1 µM (Cdc7/Dbf4 complex; [3]): 97%

Compound: Cc1[nH]ncc1-c1cc2nc([C@H]3NCC[C@@H]3C)[nH]c(=O)c2s1 [Example 140, 6-(5-methyl-1H-pyrazol-4-yl)-2-[(2S,3S)-3-methylpyrrolidin-2-yl]thieno[3,2-d]pyrimidin-4 (3H)-one dihydrochloride]
inhibition at 1 µM (Cdc7/Dbf4 complex; [7]): 100%

Compound: O=c1[nH]c(CN2CCCC2)nc2cc(-c3cn[nH]c3C(F)(F)F)sc12 [Example 143, 2-(pyrrolidin-1-ylmethyl)-6-[5-(trifluoromethyl)-1H-pyrazol-4-yl]thieno[3,2-d]pyrimidin-4 (3H)-one]
inhibition at 1 µM (Cdc7/Dbf4 complex; [3]): 122%

Compound: Cc1[nH]ncc1-c1cc2nc(C34CC(CN3)C4)[nH]c(=O)c2s1 [Example 148, 2-(2-azabicyclo[2.1.1]hex-1-yl)-6-(5-methyl-1H-pyrazol-4-yl)thieno[3,2-d]pyrimidin-4 (3H)-one hydrochloride]
inhibition at 1 µM (Cdc7/Dbf4 complex; [7]): 102%

Compound: Cc1[nH]ncc1-c1cc2nc([C@]34C[C@H]3CCN4)[nH]c(=O)c2s1 [Example 157, 2-[(1S,5R)-2-azabicyclo[3.1.0]hex-1-yl]-6-(5-methyl-1H-pyrazol-4-yl)thieno[3,2-d]pyrimidin-4 (3H)-one dihydrochloride]
inhibition at 1 µM (Cdc7/Dbf4 complex; [3]): 92%

Compound: O=c1[nH]c(C23CC(CN2)C3)nc2cc(-c3cn[nH]c3C(F)(F)F)sc12 [Example 165, 2-(2-azabicyclo[2.1.1]hex-1-yl)-6-[5-(trifluoromethyl)-1H-pyrazol-4-yl]thieno[3,2-d]pyrimidin-4 (3H)-one dihydrochloride]
inhibition at 1 µM (Cdc7/Dbf4 complex; [3]): 105%

Compound: Cc1[nH]ncc1-c1cc2nc([C@@H]3CC4CCN3CC4)[nH]c(=O)c2s1 [Example 170, 2-[(2S)-1-azabicyclo[2.2.2]oct-2-yl]-6-(5-methyl-1H-pyrazol-4-yl)thieno[3,2-d]pyrimidin-4 (3H)-one trifluoroacetate]
inhibition at 1 µM (Cdc7/Dbf4 complex; [3]): 95%
inhibition at 1 µM ([1]; COLO 205, 8 h): 97.3%
inhibition at 1 µM [2]: 69.7%

Further lines, with some results ahead:

inhibition at 1 µM (Cdc7/Dbf4 complex; [6]): 93.8%
Compound: Cc1[nH]ncc1-c1cc2nc(CN3CCCC3)[nH]c(=O)c2s1 [Example 2, 6-(5-methyl-1H-pyrazol-4-yl)-2-(pyrrolidin-1-ylmethyl)thieno[3,2-d]pyrimidin-4 (3H)-one]
inhibition at 1 µM ([1]; COLO 205, 8 h): 90.4%
inhibition at 1 µM [2]: 44.1%

inhibitory rate (%) at 1 μM (Cdc7/Dbf4 complex; test compound 1 μM, Cdc7/Dbf4, 1.0 μm ATP, 10 μg/ml MCM2, dihydrochloride): 102.6%
Compound: Cc1[nH]ncc1-c1cc2nc([C@@H]3CCCN3)[nH]c(=O)c2s1 [Example 37, 6-(5-methyl-1H-pyrazol-4-yl)-2-[(2S)-pyrrolidin-2-yl]thieno[3,2-d]pyrimidin-4 (3H)-one dihydrochloride]
inhibition at 1 µM ([1]; COLO 205, 8 h): 98.4%
inhibition at 1 µM [2]: 75.3%

inhibition at 1 µM (Cdc7/Dbf4 complex; [3]): 107%
Compound: CNCc1nc2cc(-c3cn[nH]c3C)sc2c(=O)[nH]1 [Example 133, 2-[(methylamino)methyl]-6-(5-methyl-1H-pyrazol-4-yl)thieno[3,2-d]pyrimidin-4 (3H)-one dihydrochloride]

inhibition at 1 µM (Cdc7/Dbf4 complex; [3]): 111%
Compound: Cc1[nH]ncc1-c1cc2nc(C(C)(C)N)[nH]c(=O)c2s1 [Example 135, 2-(1-amino-1-methylethyl)-6-(5-methyl-1H-pyrazol-4-yl)thieno[3,2-d]pyrimidin-4 (3H)-one dihydrochloride]

inhibition at 1 µM (Cdc7/Dbf4 complex; [6]): 91%
Compound: Cc1[nH]ncc1-c1cc2nc(C3CC=CCN3)[nH]c(=O)c2s1 (stereo not drawn) [Example 136, 6-(5-methyl-1H-pyrazol-4-yl)-2-(1,2,3,6-tetrahydropyridin-2-yl)thieno[3,2-d]pyrimidin-4 (3H)-one dihydrochloride]

inhibition at 1 µM (Cdc7/Dbf4 complex; [3]): 106%
Compound: Cc1[nH]ncc1-c1cc2nc(C3CCCC3N)[nH]c(=O)c2s1 (stereo not drawn) [Example 139, 2-(2-aminocyclopentyl)-6-(5-methyl-1H-pyrazol-4-yl)thieno[3,2-d]pyrimidin-4 (3H)-one dihydrochloride]

inhibition at 1 µM (Cdc7/Dbf4 complex; [6]): 108%
Compound: Cc1[nH]ncc1-c1cc2nc([C@H]3CC=CCN3)[nH]c(=O)c2s1 [Example 146, 6-(5-methyl-1H-pyrazol-4-yl)-2-[(2R)-1,2,3,6-tetrahydropyridin-2-yl]thieno[3,2-d]pyrimidin-4 (3H)-one dihydrochloride]

inhibition at 1 µM (Cdc7/Dbf4 complex; [3]): 104%
Compound: CCc1[nH]ncc1-c1cc2nc([C@@H]3CCCCN3)[nH]c(=O)c2s1 [Example 162, 6-(5-ethyl-1H-pyrazol-4-yl)-2-[(2S)-piperidin-2-yl]thieno[3,2-d]pyrimidin-4 (3H)-one dihydrochloride]

inhibition at 1 µM (Cdc7/Dbf4 complex; [3]): 101%
Compound: Cc1[nH]ncc1-c1cc2nc([C@H]3CC4CCN3CC4)[nH]c(=O)c2s1 [Example 164, 2-[(2R)-1-azabicyclo[2.2.2]oct-2-yl]-6-(5-methyl-1H-pyrazol-4-yl)thieno[3,2-d]pyrimidin-4 (3H)-one trifluoroacetate]

inhibitory rate (%) at 1 μM (Cdc7/Dbf4 complex; test compound 1 μM, Cdc7/Dbf4, 1.0 μm ATP, 10 μg/ml MCM2, hydrochloride): 102%
Compound: Cc1[nH]ncc1-c1cc2nc([C@@H]3CCCCN3)[nH]c(=O)c2s1 [Example 172, 6-(5-methyl-1H-pyrazol-4-yl)-2-[(2S)-piperidin-2-yl]thieno[3,2-d]pyrimidin-4 (3H)-one hydrochloride]

inhibitory rate (%) at 1 μM (Cdc7/Dbf4 complex; test compound 1 μM, Cdc7/Dbf4, 1.0 μm ATP, 10 μg/ml MCM2): 104%
Compound: Cc1[nH]ncc1-c1cc2nc([C@@H]3CCCCN3)[nH]c(=O)c2s1 [Example 174, 6-(5-methyl-1H-pyrazol-4-yl)-2-[(2S)-piperidin-2-yl]thieno[3,2-d]pyrimidin-4 (3H)-one]
